In patent US8722849B2, “Polypeptides” (Novo Nordisk A/S, priority 2011, dated 2014):
Values after ≈ are worked out from the molar mass of the structure shown. Where two headings read alike, the source gives them in different places. Starred links: 1 amine or outer side, 2 acyl side, 3 side chain; linkers in the order of their positions; H or OH if unused. Positions of bridges follow the written chain, without caps; N, C: chain ends. Residues, ends and D or L forms follow the SMILES beside them. *: point of attachment. C20 diacid = O=C(O)CCCCCCCCCCCCCCCCCCC(=O)*; C18 diacid = O=C(O)CCCCCCCCCCCCCCCCC(=O)*; γGlu = O=C(O)[C@H](CCC(=O)[*:2])N[*:1]

Experiments:
[1] = biological target: T1, human amylin receptor (amylin 3(a) receptor: human calcitonin receptor + RAMP-3) (Homo sapiens, UniProt O60896+P30988); experiment: Assay (II)a functional CRE-luciferase assay, human amylin receptor; assay type: cell-based; conditions: Table 2; BHK amylin 3(a)-receptor/CRE-luc cells
T1 construct: expressed in transfected cells; host or cells: BHK570
T1 sequence (P30988 25-474): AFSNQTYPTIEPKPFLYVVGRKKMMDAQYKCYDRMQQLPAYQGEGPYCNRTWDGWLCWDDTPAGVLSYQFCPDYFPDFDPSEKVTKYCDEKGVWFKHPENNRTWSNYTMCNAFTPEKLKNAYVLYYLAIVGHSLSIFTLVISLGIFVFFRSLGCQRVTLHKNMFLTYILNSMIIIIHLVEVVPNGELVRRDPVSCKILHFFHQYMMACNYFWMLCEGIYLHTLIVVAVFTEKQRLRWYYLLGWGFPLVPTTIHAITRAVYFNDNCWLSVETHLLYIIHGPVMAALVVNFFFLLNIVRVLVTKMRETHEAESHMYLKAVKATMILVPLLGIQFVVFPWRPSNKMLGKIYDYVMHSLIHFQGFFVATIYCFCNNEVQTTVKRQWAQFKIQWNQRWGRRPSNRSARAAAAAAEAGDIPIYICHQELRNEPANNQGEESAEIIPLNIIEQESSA
T1 sequence (O60896 24-148 partner): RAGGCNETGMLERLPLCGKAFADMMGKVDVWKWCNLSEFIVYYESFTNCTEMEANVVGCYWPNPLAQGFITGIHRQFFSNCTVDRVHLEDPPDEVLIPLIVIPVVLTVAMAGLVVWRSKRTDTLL

[2] = biological target: T2, human calcitonin receptor (Homo sapiens, UniProt P30988); experiment: Assay (II)a functional CRE-luciferase assay, human calcitonin receptor; assay type: cell-based; conditions: Table 7; human calcitonin (CTa) receptor
T2 construct: expressed in transfected cells; host or cells: BHK570
T2 sequence (P30988 25-474): T1 sequence (P30988 25-474)

[3] = Assay (III) ThT fibrillation assay for physical stability; assay type: physicochemical; conditions: ThT fibrillation assay
How it was run: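 Freshly prepared formulations, pH-adjusted, with 1 μM ThT; four or eight replicates incubated at 37 °C under 960 rpm orbital shaking. Fluorescence (ex 444/em 485 nm) read every 20 min; […]. Peptide concentration measured by RP-HPLC before and after the run.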

[4] = Assay (IV) determination of solubility; assay type: physicochemical
How it was run: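 Stock ~500 nmol/ml in water; 1:1 with 100 mM buffer, pH 3.0–8.0 (glycylglycine ≤5.0, bistrispropane ≥6.0); 18 h RT; spin; HPLC quantitation of soluble polypeptide.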

[5] = bistrispropane buffer, pH 6, pH 6.0, read-out: Solubility pH 6.0
[6] = bistrispropane buffer, pH 6.5, pH 6.5, read-out: Solubility pH 6.5
[7] = bistrispropane buffer, pH 7, pH 7.0, read-out: Solubility pH 7.0
[8] = bistrispropane buffer, pH 7.5, pH 7.5, read-out: Solubility pH 7.5
[9] = bistrispropane buffer, pH 8, pH 8.0, read-out: Solubility pH 8.0
[10] = glycylglycine buffer, pH 3, pH 3.0, read-out: Solubility pH 3.0
[11] = glycylglycine buffer, pH 4, pH 4.0, 18 hours at room temperature, Table 2, read-out: Solubility pH 4.0
[12] = glycylglycine buffer, pH 4, pH 4.0, read-out: Solubility pH 4.0
[13] = glycylglycine buffer, pH 5, pH 5.0, read-out: Solubility pH 5.0

SMILES | EC50 [1] [nM] | EC50 [2] [nM] | ThT pH 4.0 lag time (h) [3] [h] | solubility at 18 h [4, 5] [µM] | solubility at 18 h [4, 6] [µM] | solubility at 18 h ([4]; bistrispropane buffer, pH 7, pH 7.0, 18 hours at room temperature, Table 3, read-out: Solubility pH 7.0) [µM] | solubility at 18 h [4, 7] [µM] | solubility at 18 h [4, 8] [µM] | solubility at 18 h [4, 9] [µM] | solubility at 18 h [4, 10] [µM] | solubility at 18 h [4, 11] [µM] | solubility at 18 h [4, 12] [µM] | solubility at 18 h [4, 13] [µM] | ThT pH 4.0 lag time [3] [h]
CC[C@H](C)[C@H](NC(=O)[C@@H]1CCCN1C(=O)CNC(=O)[C@H](Cc1ccccc1)NC(=O)[C@H](CC(N)=O)NC(=O)[C@H](CC(N)=O)NC(=O)[C@H](CO)NC(=O)[C@H](CO)NC(=O)[C@H](Cc1c[nH]cn1)NC(=O)[C@H](Cc1c[nH]cn1)NC(=O)[C@H](CC(C)C)NC(=O)[C@H](Cc1ccccc1)NC(=O)[C@H](CCC(=O)O)NC(=O)[C@H](C)NC(=O)[C@H](CC(C)C)NC(=O)[C@H](CCCNC(=N)N)NC(=O)[C@H](CCC(N)=O)NC(=O)[C@@H](NC(=O)[C@H](C)NC(=O)[C@@H]1CSSC[C@H](NC(=O)[C@H](CCCCN)NC(=O)[C@H](CCC(=O)O)NC(=O)CC[C@H](NC(=O)CCCCCCCCCCCCCCCCC(=O)O)C(=O)O)C(=O)N[C@@H](CC(N)=O)C(=O)N[C@@H]([C@@H](C)O)C(=O)N[C@@H](C)C(=O)N[C@@H]([C@@H](C)O)C(=O)N1)[C@@H](C)O)C(=O)N[C@@H](CC(C)C)C(=O)N1CCC[C@H]1C(=O)N1CCC[C@H]1C(=O)N[C@H](C(=O)N[C@@H](CC(N)=O)C(=O)N[C@H](C(=O)NCC(=O)N[C@@H](CO)C(=O)N[C@@H](Cc1c[nH]cn1)C(=O)N[C@H](C(=O)N[C@@H](Cc1ccc(O)cc1)C(N)=O)[C@@H](C)O)C(C)C)[C@@H](C)O [Example 60, N-alpha-[(S)-4-Carboxy-4-(17-carboxyheptadecanoylamino)butyryl]-Glu-[Glu14,His17,His35]-pramlintide] ({C18 diacid-γGlu}-EKCNTATCATQRLAEFLHHSSNNFGPILPPTNVGSHTY-NH2; disulfide 3-8) | 0.102 | 0.169 | 10 | > 200 | > 200 | > 200 | > 200 | > 200 | > 200 | > 200 | > 200 | > 200 | > 200 | –
CC[C@H](C)[C@H](NC(=O)[C@@H]1CCCN1C(=O)CNC(=O)[C@H](Cc1ccccc1)NC(=O)[C@H](CC(N)=O)NC(=O)[C@H](CO)NC(=O)[C@H](CO)NC(=O)[C@H](CO)NC(=O)[C@H](Cc1c[nH]cn1)NC(=O)[C@H](Cc1c[nH]cn1)NC(=O)[C@H](CC(C)C)NC(=O)[C@H](Cc1ccccc1)NC(=O)[C@H](CCC(=O)O)NC(=O)[C@H](C)NC(=O)[C@H](CC(C)C)NC(=O)[C@H](CCCNC(=N)N)NC(=O)[C@H](CCC(N)=O)NC(=O)[C@@H](NC(=O)[C@H](C)NC(=O)[C@@H]1CSSC[C@H](NC(=O)[C@H](Cc2c[nH]cn2)NC(=O)[C@H](Cc2c[nH]cn2)NC(=O)[C@H](Cc2c[nH]cn2)NC(=O)CC[C@H](NC(=O)CCCCCCCCCCCCCCCCCCC(=O)O)C(=O)O)C(=O)N[C@@H](CC(N)=O)C(=O)N[C@@H]([C@@H](C)O)C(=O)N[C@@H](C)C(=O)N[C@@H]([C@@H](C)O)C(=O)N1)[C@@H](C)O)C(=O)N[C@@H](CC(C)C)C(=O)N1CCC[C@H]1C(=O)N1CCC[C@H]1C(=O)N[C@H](C(=O)N[C@@H](CC(N)=O)C(=O)N[C@H](C(=O)NCC(=O)N[C@@H](CO)C(=O)N[C@@H](CCC(=O)O)C(=O)N[C@H](C(=O)N[C@@H](Cc1ccc(O)cc1)C(N)=O)[C@@H](C)O)C(C)C)[C@@H](C)O [Example 63, N-alpha-[(S)-4-Carboxy-4-(19-carboxynonadecanoylamino)butyryl]-His-His-[His1,Glu14,His17,Ser21,Glu35]-pramlintide] ({C20 diacid-γGlu}-HHHCNTATCATQRLAEFLHHSSSNFGPILPPTNVGSETY-NH2; disulfide 4-9 (inferred); C-terminus assumed) | 0.558 | 0.632 | 2 | 1 (≈ 4.73 µg/mL) | 2 (≈ 9.45 µg/mL) | – | 75 (≈ 355 µg/mL) | > 200 | > 200 | > 200 | > 200 | > 200 | > 200 | –
CC(C)C[C@H](NC(=O)[C@H](CCCNC(=N)N)NC(=O)[C@H](CCC(N)=O)NC(=O)[C@@H](NC(=O)[C@H](C)NC(=O)[C@@H]1CSSC[C@H](NC(=O)[C@H](CCCCN)NC(=O)CC[C@H](NC(=O)CCCCCCCCCCCCCCCCCCC(=O)O)C(=O)O)C(=O)N[C@@H](CC(N)=O)C(=O)N[C@@H]([C@@H](C)O)C(=O)N[C@@H](C)C(=O)N[C@@H]([C@@H](C)O)C(=O)N1)[C@@H](C)O)C(=O)N[C@@H](C)C(=O)N[C@@H](CCC(=O)O)C(=O)N[C@@H](Cc1ccccc1)C(=O)N[C@@H](CC(C)C)C(=O)N[C@@H](Cc1c[nH]cn1)C(=O)N[C@@H](Cc1c[nH]cn1)C(=O)N[C@@H](CO)C(=O)N[C@@H](CO)C(=O)N[C@@H](CC(N)=O)C(=O)N[C@@H](CC(N)=O)C(=O)N[C@@H](Cc1ccccc1)C(=O)NCC(=O)N[C@@H](C)C(=O)N1CCC[C@H]1C(=O)N[C@@H](CC(C)C)C(=O)N[C@@H](CO)C(=O)N[C@@H](CO)C(=O)N[C@H](C(=O)N[C@@H](CC(N)=O)C(=O)N[C@H](C(=O)NCC(=O)N[C@@H](CO)C(=O)N[C@@H](Cc1c[nH]cn1)C(=O)N[C@H](C(=O)N[C@@H](Cc1ccc(O)cc1)C(N)=O)[C@@H](C)O)C(C)C)[C@@H](C)O [Example 64, N-alpha-[(S)-4-Carboxy-4-(19-carboxynonadecanoylamino)butyryl]-[Glu14,His17,Ala25,Pro26,Ser28,Ser29,His35]-pramlintide] ({C20 diacid-γGlu}-KCNTATCATQRLAEFLHHSSNNFGAPLSSTNVGSHTY-NH2; disulfide 2-7 (inferred)) | 0.153 | 0.0945 | 6 | > 200 | 189 (≈ 835 µg/mL) | – | 91 (≈ 402 µg/mL) | 136 (≈ 601 µg/mL) | > 200 | > 200 | > 200 | > 200 | > 200 | –
CC[C@H](C)[C@H](NC(=O)[C@@H]1CCCN1C(=O)CNC(=O)[C@H](Cc1ccccc1)NC(=O)[C@H](CC(N)=O)NC(=O)[C@H](CC(N)=O)NC(=O)[C@H](CO)NC(=O)[C@H](CO)NC(=O)[C@H](Cc1c[nH]cn1)NC(=O)[C@H](Cc1c[nH]cn1)NC(=O)[C@H](CC(C)C)NC(=O)[C@H](Cc1ccccc1)NC(=O)[C@H](CCC(=O)O)NC(=O)[C@H](C)NC(=O)[C@H](CC(C)C)NC(=O)[C@H](CCCNC(=N)N)NC(=O)[C@H](CCC(N)=O)NC(=O)[C@@H](NC(=O)[C@H](C)NC(=O)[C@@H]1CSSC[C@H](NC(=O)[C@H](CCCCN)NC(=O)[C@H](Cc2c[nH]cn2)NC(=O)[C@H](Cc2c[nH]cn2)NC(=O)CC[C@H](NC(=O)CCCCCCCCCCCCCCCCCCC(=O)O)C(=O)O)C(=O)N[C@@H](CC(N)=O)C(=O)N[C@@H]([C@@H](C)O)C(=O)N[C@@H](C)C(=O)N[C@@H]([C@@H](C)O)C(=O)N1)[C@@H](C)O)C(=O)N[C@@H](CC(C)C)C(=O)N1CCC[C@H]1C(=O)N1CCC[C@H]1C(=O)N[C@H](C(=O)N[C@@H](CC(N)=O)C(=O)N[C@H](C(=O)NCC(=O)N[C@@H](CO)C(=O)N[C@@H](Cc1c[nH]cn1)C(=O)N[C@H](C(=O)N[C@@H](Cc1ccc(O)cc1)C(N)=O)[C@@H](C)O)C(C)C)[C@@H](C)O [Example 67, N-alpha-[(S)-4-Carboxy-4-(19-carboxynonadecanoylamino)butyryl]-His-His-[Glu14,His17,His35]-pramlintide] ({C20 diacid-γGlu}-HHKCNTATCATQRLAEFLHHSSNNFGPILPPTNVGSHTY-NH2; disulfide 4-9 (inferred); C-terminus assumed) | 0.0965 | 0.115 | >45 | > 200 | 166 (≈ 789 µg/mL) | – | 15 (≈ 71.3 µg/mL) | 24 (≈ 114 µg/mL) | 60 (≈ 285 µg/mL) | > 200 | > 200 | > 200 | > 200 | >45
